Experimental data: the supplement of paper PMC10307832

Legend:
Assay in all cases: relative viability (nuclei count vs DMSO), 5 days (fraction); higher = more cells survive
Veliparib + Trametinib = compound: C[C@]1(c2nc3c(C(N)=O)cccc3[nH]2)CCCN1 [Veliparib] + CC(=O)Nc1cccc(-n2c(=O)n(C3CC3)c(=O)c3c(Nc4ccc(I)cc4F)n(C)c(=O)c(C)c32)c1 [Trametinib] (partner 0.02 µM)
Summary of the method: (§1)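 Lung cancer cell lines, seeded in 1536-well plates, were treated the following day by pin tool with a single drug or with five library-drug doses (not always all listed) in √10 steps on top of a fixed anchor-drug dose. Cells were fixed and nuclei stained in one step after 5 days, and nuclei were counted. Relative viability is the nuclei count for treated wells divided by that for vehicle wells, reported as medians of duplicate plates.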

[1] = compound: COC1=CC=C(C=C1)CN2C=CC3=C2C=C(C=C3)C(=O)NO + Cc1nc(Nc2ncc(C(=O)Nc3c(C)cccc3Cl)s2)cc(N2CCN(CCO)CC2)n1 [Dasatinib] (partner 0.075 µM)
Summary of the method: as §1

Veliparib + Pictilisib = compound: C[C@]1(c2nc3c(C(N)=O)cccc3[nH]2)CCCN1 [Veliparib] + CS(=O)(=O)N1CCN(Cc2cc3nc(-c4cccc5[nH]ncc45)nc(N4CCOCC4)c3s2)CC1 [Pictilisib] (partner 1 µM)
Summary of the method: as §1

Veliparib + Foretinib = compound: C[C@]1(c2nc3c(C(N)=O)cccc3[nH]2)CCCN1 [Veliparib] + COc1cc2c(Oc3ccc(NC(=O)C4(C(=O)Nc5ccc(F)cc5)CC4)cc3F)ccnc2cc1OCCCN1CCOCC1 [Foretinib] (partner 0.25 µM)
Summary of the method: as §1

Cell Line | relative viability (Veliparib + Trametinib; first compound 0.02 µM) | relative viability (Veliparib + Trametinib; first compound 0.06325 µM) | relative viability (Veliparib + Trametinib; first compound 0.2 µM) | relative viability (Veliparib + Trametinib; first compound 0.6325 µM) | relative viability (Veliparib + Trametinib; first compound 2 µM) | relative viability ([1]; first compound 0.08 µM) | relative viability ([1]; first compound 0.253 µM) | relative viability ([1]; first compound 0.8 µM) | relative viability ([1]; first compound 2.53 µM) | relative viability ([1]; first compound 8 µM) | relative viability (Veliparib + Pictilisib; first compound 0.02 µM) | relative viability (Veliparib + Pictilisib; first compound 0.06325 µM) | relative viability (Veliparib + Pictilisib; first compound 0.2 µM) | relative viability (Veliparib + Pictilisib; first compound 2 µM) | relative viability (Veliparib + Foretinib; first compound 0.02 µM) | relative viability (Veliparib + Foretinib; first compound 0.06325 µM) | relative viability (Veliparib + Foretinib; first compound 0.2 µM) | relative viability (Veliparib + Foretinib; first compound 0.6325 µM) | relative viability (Veliparib + Foretinib; first compound 2 µM) | relative viability (Veliparib + Pictilisib; first compound 0.6325 µM)
LCLC-97TM1 | 0.221 | 0.178 | 0.202 | 0.183 | 0.198 | 0.294 | 0.667 | 0.938 | 0.801 | 0.721 | 0.155 | 0.224 | 0.215 | 0.235 | 0.875 | 0.863 | 0.862 | 0.939 | 0.989 | 
NCI-H2170 | 0.872 | 1.02 | 1.01 | 0.901 | 0.935 | 0.456 | 0.687 | 0.711 | 0.69 | 0.541 | 0.328 | 0.345 | 0.314 | 0.347 | 0.977 | 1 | 0.963 | 0.942 | 1.03 | 0.346
NCI-H2085 | 0.553 | 0.494 | 0.615 | 0.532 | 0.556 | 0.235 | 0.293 | 0.221 | 0.225 | 0.214 | 0.468 | 0.463 | 0.39 | 0.396 |  | 0.787 | 0.909 | 0.647 | 1.15 | 0.415
NCI-H1666 | 0.84 | 0.861 | 0.782 | 0.754 | 0.926 | 0.831 | 0.783 | 0.887 | 0.873 | 0.822 | 0.357 | 0.334 | 0.625 | 0.49 | 1.01 | 0.96 | 0.997 | 0.895 | 0.964 | 0.427
HCC-78 | 0.84 | 0.701 | 0.869 | 0.617 | 0.669 | 0.436 | 0.362 | 0.391 | 0.449 | 0.39 | 0.226 | 0.222 | 0.267 | 0.231 | 0.557 | 0.557 | 0.568 | 0.539 | 0.571 | 0.236
201T | 0.762 | 0.719 | 0.699 | 0.746 | 0.738 | 0.625 | 0.662 | 0.607 | 0.573 | 0.545 | 0.682 | 0.623 | 0.682 | 0.658 |  |  | 1.2 | 1.03 | 1.14 | 0.678
NCI-H596 | 0.83 | 0.666 | 0.77 | 0.806 | 0.793 | 0.588 | 0.614 | 0.603 | 0.558 | 0.465 | 0.394 | 0.35 | 0.4 | 0.416 | 0.967 | 0.823 | 1.02 | 0.773 | 0.75 | 0.362
LXF-289 | 0.671 | 0.691 | 0.668 | 0.681 | 0.657 |  | 0.202 | 0.237 | 0.246 | 0.181 | 0.78 | 0.778 | 0.768 | 0.755 | 0.986 | 0.956 | 0.957 | 0.984 | 0.962 | 0.746
NCI-H2087 | 0.198 | 0.205 | 0.215 | 0.168 | 0.154 | 0.93 | 0.941 | 0.989 | 0.983 | 0.653 | 0.609 | 0.783 | 0.726 | 0.871 | 1.04 | 1.04 | 0.999 | 1.16 | 1.08 | 0.65
NCI-H441 | 0.489 | 0.497 | 0.488 | 0.477 | 0.568 | 0.613 | 0.621 | 0.623 | 0.567 | 0.485 | 0.472 | 0.501 | 0.588 | 0.516 | 0.905 | 0.738 | 0.992 | 0.877 | 0.948 | 0.504
NCI-H3122 | 0.181 | 0.186 | 0.214 | 0.208 | 0.233 | 0.864 | 0.869 | 0.86 | 0.741 | 0.527 | 0.576 | 0.599 | 0.673 | 0.611 | 1 | 0.926 | 0.912 | 0.943 | 0.966 | 0.552
